Key:
Type in all cases: cell-based
[1] = system: Conditional pathogenic enterobacteria gram-negative aerobic bacilli; also: key: + sensitive strains; + moderately sensitive strains; − stable strains
[2] = system: Pseudomonas aeruginosa B-601; assay: Sensitivity of strains: suppression of growth; conditions: Compound (1) 1.0%; antibiotics disc method
Escherichia coli M-17 = assay: Sensitivity of strains: suppression of growth; conditions: Compound (1) 1.0%; antibiotics disc method
Escherichia coli B-683 = assay: Sensitivity of strains: suppression of growth; conditions: Compound (1) 1.0%; antibiotics disc method
Escherichia coli B-65 = assay: Sensitivity of strains: suppression of growth; conditions: Compound (1) 1.0%; antibiotics disc method
[3] = system: Enterobacter aerogenes B-679; assay: Sensitivity of strains: suppression of growth; conditions: Compound (1) 1.0%; antibiotics disc method
[4] = system: Enterobacter aerogenes B-687; assay: Sensitivity of strains: suppression of growth; conditions: Compound (1) 1.0%; antibiotics disc method
[5] = system: Citrobacter diversus B-678; assay: Sensitivity of strains: suppression of growth; conditions: Compound (1) 1.0%; antibiotics disc method
[6] = system: Shigella flexneri M-2A6907; assay: Sensitivity of strains: suppression of growth; conditions: Compound (1) 1.0%; antibiotics disc method
[7] = system: Salmonella typhimurium M-727; assay: Sensitivity of strains: suppression of growth; conditions: Compound (1) 1.0%; antibiotics disc method
Acinetobacter B-681 = assay: Sensitivity of strains: suppression of growth; conditions: Compound (1) 1.0%; antibiotics disc method
Acinetobacter B-676 = assay: Sensitivity of strains: suppression of growth; conditions: Compound (1) 1.0%; antibiotics disc method
Acinetobacter B-677 = assay: Sensitivity of strains: suppression of growth; conditions: Compound (1) 1.0%; antibiotics disc method
Alkaligenes sp. B-689 = assay: Sensitivity of strains: suppression of growth; conditions: Compound (1) 1.0%; antibiotics disc method
Alkaligenes sp. B-667 = assay: Sensitivity of strains: suppression of growth; conditions: Compound (1) 1.0%; antibiotics disc method
[8] = system: Yersinia pseudotuberculosis; conditions: Compound (1) 1.0%; antibiotics disc method
[9] = system: Klebsiella pneumoniae M-A21; assay: Sensitivity of strains: suppression of growth; conditions: Compound (1) 1.0%; antibiotics disc method
[10] = system: Klebsiella pneumoniae M-248; assay: Sensitivity of strains: suppression of growth; conditions: Compound (1) 1.0%; antibiotics disc method
Bacillus sp. B-575 = assay: Sensitivity of strains: suppression of growth; also: key: + sensitive strains; + moderately sensitive strains; − stable strains
[11] = system: Neisseria meningitidis M-6231; assay: Sensitivity of strains: suppression of growth; conditions: Compound (1) 1.0%; antibiotics disc method
[12] = system: Neisseria meningitidis M-A72; assay: Sensitivity of strains: suppression of growth; conditions: Compound (1) 1.0%; antibiotics disc method
[13] = system: Staphylococcus aureus M-12159; assay: Sensitivity of strains: suppression of growth; conditions: Compound (1) 1.0%; antibiotics disc method
[14] = system: Staphylococcus aureus M-209; assay: Sensitivity of strains: suppression of growth; conditions: Compound (1) 1.0%; antibiotics disc method
[15] = system: Staphylococcus aureus B-685; assay: Sensitivity of strains: suppression of growth; conditions: Compound (1) 1.0%; antibiotics disc method
[16] = system: Staphylococcus aureus B-674; assay: Sensitivity of strains: suppression of growth; conditions: Compound (1) 1.0%; antibiotics disc method
[17] = system: Staphylococci epidermidis D-513; assay: Sensitivity of strains: suppression of growth; conditions: Compound (1) 1.0%; antibiotics disc method
[18] = system: Staphylococcus epidermidis BK-30; assay: Sensitivity of strains: suppression of growth; conditions: Compound (1) 1.0%; antibiotics disc method
[19] = system: γ-hemolytic streptococcus B-672; assay: Sensitivity of strains: suppression of growth; conditions: Compound (1) 1.0%; antibiotics disc method
[20] = system: β-hemolytic streptococcus B-624; assay: Sensitivity of strains: suppression of growth; conditions: Compound (1) 1.0%; antibiotics disc method
Shigella sonnei B-720 = assay: Sensitivity of strains: suppression of growth; conditions: Compound (1) 1.0%; antibiotics disc method
[21] = system: Salmonella paratyphi M-16469; assay: Sensitivity of strains: suppression of growth; conditions: Compound (1) 1.0%; antibiotics disc method
[22] = system: Corynebacterium diphtheriae B-670; assay: Sensitivity of strains: suppression of growth; conditions: Compound (1) 1.0%; antibiotics disc method

Molecule | Suppression of Growth (+/−) [2] | Suppression of Growth (+/−) (Escherichia coli M-17) | Suppression of Growth (+/−) (Escherichia coli B-683) | Suppression of Growth (+/−) (Escherichia coli B-65) | Suppression of Growth (+/−) [3] | Suppression of Growth (+/−) [4] | Suppression of Growth (+/−) [5] | Suppression of Growth (+/−) [6] | Suppression of Growth (+/−) [7] | Suppression of Growth (+/−) (Acinetobacter B-681) | Suppression of Growth (+/−) (Acinetobacter B-676) | Suppression of Growth (+/−) (Alkaligenes sp. B-689) | Suppression of Growth (+/−) (Alkaligenes sp. B-667) | Suppression of Growth (+/−) [8] | Suppression of Growth (+/−) [9] | Suppression of Growth (+/−) [10] | Suppression of Growth (+/−) [11] | Suppression of Growth (+/−) [12] | Suppression of Growth (+/−) [13] | Suppression of Growth (+/−) [14] | also measured
O=C(N[C@H](CO)[C@H](O)c1ccc([N+](=O)[O-])cc1)C(Cl)Cl [Antibiotic 7, levomicethin] | + | + | + | + | − | − | − | + | − | − | − | + | − | − | − | − | − | − | − | − | Suppression of Growth (+/−) [1]: −; Suppression of Growth (+/−) (Acinetobacter B-677): −; Suppression of Growth (+/−) (Bacillus sp. B-575): +; Suppression of Growth (+/−) [15]: −; Suppression of Growth (+/−) [16]: +; Suppression of Growth (+/−) [17]: −; Suppression of Growth (+/−) [18]: −; Suppression of Growth (+/−) [19]: −; Suppression of Growth (+/−) [20]: −
Cc1onc(-c2ccccc2)c1C(=O)N[C@@H]1C(=O)N2[C@@H]1SC(C)(C)[C@@H]2C(=O)O [Antibiotic 8, oxacillin] | − | − | − | − | − | − | − | − | − | − | − | − | − | − | − | − | − | − | + | − | Suppression of Growth (+/−) (Shigella sonnei B-720): −; Suppression of Growth (+/−) [21]: −; Suppression of Growth (+/−) (Acinetobacter B-677): −; Suppression of Growth (+/−) [22]: −; Suppression of Growth (+/−) (Bacillus sp. B-575): −; Suppression of Growth (+/−) [15]: +; Suppression of Growth (+/−) [16]: −; Suppression of Growth (+/−) [17]: +; Suppression of Growth (+/−) [18]: +; Suppression of Growth (+/−) [19]: −; Suppression of Growth (+/−) [20]: −
CC[C@H]1OC(=O)[C@H](C)[C@@H](O[C@H]2C[C@@](C)(OC)[C@@H](O)[C@H](C)O2)[C@H](C)[C@@H](O[C@@H]2O[C@H](C)C[C@H](N(C)C)[C@H]2O)[C@](C)(O)C[C@@H](C)C(=O)[C@H](C)[C@@H](O)[C@]1(C)O [Antibiotic 14, erythromycin] | + | + | + | + | − | − | − | − | − | − | − | − | − | − | − | − | − | − | − | − | Suppression of Growth (+/−) [1]: −; Suppression of Growth (+/−) (Shigella sonnei B-720): −; Suppression of Growth (+/−) [21]: −; Suppression of Growth (+/−) (Acinetobacter B-677): −; Suppression of Growth (+/−) [22]: +; Suppression of Growth (+/−) [15]: −; Suppression of Growth (+/−) [16]: +; Suppression of Growth (+/−) [17]: −; Suppression of Growth (+/−) [18]: −; Suppression of Growth (+/−) [19]: −; Suppression of Growth (+/−) [20]: −
gentamycin [Antibiotic 3] | + | + | + | + | − | − | + | + | − | − | − | + | − | − | − | − | − | − | + | + | Suppression of Growth (+/−) [1]: −; Suppression of Growth (+/−) (Shigella sonnei B-720): −; Suppression of Growth (+/−) [21]: −; Suppression of Growth (+/−) (Acinetobacter B-677): −; Suppression of Growth (+/−) [22]: +; Suppression of Growth (+/−) [15]: +; Suppression of Growth (+/−) [16]: +; Suppression of Growth (+/−) [17]: +; Suppression of Growth (+/−) [18]: −; Suppression of Growth (+/−) [19]: −; Suppression of Growth (+/−) [20]: −
ristomycin [Antibiotic 11] | − | − | − | + | − | − | − | − | − | − | − | − | − | − | − | − | − | − | + | + | Suppression of Growth (+/−) (Shigella sonnei B-720): −; Suppression of Growth (+/−) [21]: −; Suppression of Growth (+/−) [22]: +; Suppression of Growth (+/−) [15]: +; Suppression of Growth (+/−) [16]: −; Suppression of Growth (+/−) [17]: +; Suppression of Growth (+/−) [18]: +; Suppression of Growth (+/−) [19]: +; Suppression of Growth (+/−) [20]: +

Reference: patent publication US20150258059A1, “ANTIMICROBIAL AND RADIOPROTECTIVE COMPOUNDS” (BioDiem, Ltd, priority 2001, published 2015)
